Biological target: Signal transducer and activator of transcription 3 (Homo sapiens, UniProt P40763)
Experiment: Inhibition of STAT3 in human K562 cells assessed as reduction in STAT3 phosphorylation

Signal transducer and activator of transcription 3, sequence (P40763 whole entry): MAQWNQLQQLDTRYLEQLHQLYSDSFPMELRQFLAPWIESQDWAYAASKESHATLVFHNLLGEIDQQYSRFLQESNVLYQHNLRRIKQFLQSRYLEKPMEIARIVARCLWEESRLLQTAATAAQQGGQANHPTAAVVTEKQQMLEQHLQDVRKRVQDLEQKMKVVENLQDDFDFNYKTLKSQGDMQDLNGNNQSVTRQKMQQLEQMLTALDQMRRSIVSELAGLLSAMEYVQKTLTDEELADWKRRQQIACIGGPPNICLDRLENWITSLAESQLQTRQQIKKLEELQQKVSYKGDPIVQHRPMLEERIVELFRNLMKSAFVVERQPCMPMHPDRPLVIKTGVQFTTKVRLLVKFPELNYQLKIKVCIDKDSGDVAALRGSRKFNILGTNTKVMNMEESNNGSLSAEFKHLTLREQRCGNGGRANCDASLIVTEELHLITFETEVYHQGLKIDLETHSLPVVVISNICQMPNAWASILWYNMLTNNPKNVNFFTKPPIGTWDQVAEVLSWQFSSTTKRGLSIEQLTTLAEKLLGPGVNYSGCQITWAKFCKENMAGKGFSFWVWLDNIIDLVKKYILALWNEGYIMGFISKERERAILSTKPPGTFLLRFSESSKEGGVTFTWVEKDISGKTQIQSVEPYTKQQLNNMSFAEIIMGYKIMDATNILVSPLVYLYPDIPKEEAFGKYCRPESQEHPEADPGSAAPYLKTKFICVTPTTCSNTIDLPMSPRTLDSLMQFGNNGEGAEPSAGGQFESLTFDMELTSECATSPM

IC50 | Compound
18.9 µM | CCc1ccc(Nc2nc3cc(N)ccc3o2)cc1
5.8 µM | CCc1ccc(Nc2nc3cc(NC(=O)c4ccccc4)ccc3o2)cc1
